System: patients with type 2 diabetes
Format: in vivo, human
Conditions: reduction from […]; insulin glargine on top of metformin +/- TZDs, before randomized treatment
Experimental: The study consisted of 3 periods: (1) an up to 14-week screening period, which included an up to 2-week screening phase and a 12-week run-in phase with the introduction and titration of insulin glargine on top of metformin+/−TZDs; patients started insulin glargine once daily and titrated the insulin dose by a treat-to-target regimen to reach a glycemic target of FPG 100-80 mg/dl (5.6-4.4 mmol/L) during run-in.
Of note, per protocol, insulin dose adjustment to maintain fasting plasma glucose at target was allowed in both treatment groups throughout the study.

In the case of “Gly(A21)-Arg(B31)-Arg(B32)-human insulin [insulin glargine]”, the “Mean HbA1c after the 12-week run-in phase, lixisenatide group” value is reported as 7.56% and the “Mean HbA1c after the 12-week run-in phase, placebo group” value is reported as 7.60%.

— patent US20130296236A1, “TREATMENT PROTOCOL OF DIABETES TYPE 2” (priority 2011, published 2013)
